Reference: PubChem BioAssay AID1199 (EPA DSSTox, 2008)
Activity calls are given as the source filed them.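 Rule for the calls: active = a tumour-causing dose and a tumour site recorded for mice in at least one sex group; inconclusive = only government mouse studies exist and were judged inadequate; inactive = mouse studies exist but none gave tumours.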

What follows are compounds tested on mouse carcinogenicity bioassay, TD50 from CPDB (assay: DSSTox (CPDBAS) Carcinogenic Potency Database Summary Mouse Bioassay Results). Details: TD50_Mouse_Note: no positive results; TargetSites_Mouse_Female: no positive results.
Outline: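 Values are TD50 carcinogenic potencies from mouse chronic bioassays, taking the most positive result for each sex-species. Sources are published literature and NCI/NTP studies; target sites reflect author-reported positive findings.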

Q: How did the outcome turn out when COc1ccc(CCN2CCC(Nc3nc4ccccc4n3Cc3ccc(F)cc3)CC2)cc1 was run?
A: inactive; no positive results

Q: For CNC(=S)N(C)C, which outcome is on record?
A: inactive; no positive results

Q: With Cc1noc(NS(=O)(=O)c2ccc(N)cc2)c1C as the compound, how does the outcome read?
A: inactive; no positive results

Q: How did the outcome turn out when CC1(C)S[C@@H]2[C@H](NC(=O)COc3ccccc3)C(=O)N2[C@H]1C(=O)O was run?
A: inactive; no positive results

Q: With c1ccc2[nH]ccc2c1 as the compound, how does the outcome read?
A: inactive

Q: CN(C)C(=S)S was tested. Which outcome did it give?
A: inactive; no positive results

Q: How did the outcome turn out when Oc1cccc2cccnc12 was run?
A: inactive; no positive results

Q: ClCC1CO1 (stereo not drawn) was tested. Which outcome did it give?
A: inactive

Q: For C[N+](C)(C)CCCl, which outcome is on record?
A: inactive; no positive results

Q: NC(N)=O was tested. Which outcome did it give?
A: inactive; no positive results

Q: NC(N)=S was tested. Which outcome did it give?
A: inactive

Q: With O=C1CCCO1 as the compound, how does the outcome read?
A: inactive; no positive results

Q: With CC1=NN(c2ccccc2)C(=O)C1 as the compound, how does the outcome read?
A: inactive; no positive results

Q: For COc1cc(/C=C/C(=O)O[C@H]2CC[C@]34C[C@]35CC[C@]3(C)[C@@H]([C@H](C)CCC=C(C)C)CC[C@@]3(C)[C@@H]5CC[C@H]4C2(C)C)ccc1O, which outcome is on record?
A: inactive; no positive results

Q: For CC1(C)COC1=O, which outcome is on record?
A: inactive; no positive results

Q: For COc1ccc(C(c2ccc(OC)cc2)C(Cl)(Cl)Cl)cc1, which outcome is on record?
A: inactive; no positive results

Q: O=S(=O)(Oc1ccc(Cl)cc1Cl)c1ccccc1 was tested. Which outcome did it give?
A: inactive; no positive results

Q: NC(=O)c1ccncc1 was tested. Which outcome did it give?
A: inactive; no positive results

Q: How did the outcome turn out when CN(C)c1ccccc1 was run?
A: inactive; no positive results

Q: With c1ccc(-c2ccccc2)cc1 as the compound, how does the outcome read?
A: inactive; no positive results

Q: How did the outcome turn out when FCC(F)(F)F was run?
A: inactive; no positive results

Q: Which outcome does the source give for Oc1c(Cl)c(Cl)c(Cl)c(Cl)c1Cl here?
A: inactive

Q: With CN(C)C(=O)Nc1ccc(Cl)c(Cl)c1 as the compound, how does the outcome read?
A: inactive; no positive results

Q: With O=C(O)c1ccncc1 as the compound, how does the outcome read?
A: inactive; no positive results

Q: How did the outcome turn out when COC(=O)C1=C(C)NC(C)=C(C(=O)OCCN2CCN(C(c3ccccc3)c3ccccc3)CC2)C1c1cccc([N+](=O)[O-])c1 (stereo not drawn) was run?
A: inactive; no positive results

Q: For NC(=O)c1cccnc1, which outcome is on record?
A: inactive; no positive results

Q: How did the outcome turn out when Nc1ccc(/C=C/c2ccc(N)cc2S(=O)(=O)O)c(S(=O)(=O)O)c1 was run?
A: inactive; no positive results

Q: For O=C(c1ccccc1)C(O)c1ccccc1 (stereo not drawn), which outcome is on record?
A: inactive; no positive results

Q: How did the outcome turn out when Cc1ccc(S(=O)(=O)NC(=O)NN2CCCCCC2)cc1 was run?
A: inactive; no positive results

Same assay, conditions: TD50_Mouse_Note: only experiment is NCI/NTP bioassay inadequate; TargetSites_Mouse_Female: NTP bioassay inadequate

Q: Which outcome does the source give for Nc1ccc2cc3ccc(N)cc3nc2c1 here?
A: ntp bioassay inadequate

Same assay, conditions: TargetSites_Mouse_BothSexes: no positive results

Q: With Cc1cc(=O)[nH]c(=S)[nH]1 as the compound, how does the outcome read?
A: inactive

Q: How did the outcome turn out when CC(=O)C(N=Nc1ccc(Cl)cc1Cl)C(=O)Nc1ccc(-c2ccc(NC(=O)C(N=Nc3ccc(Cl)cc3Cl)C(C)=O)c(C)c2)cc1C (stereo not drawn) was run?
A: inactive

Same assay, conditions: TargetSites_Mouse_Female: esophagus; kidney; liver; stomach; urinary bladder

Q: CC(=O)N(O)c1ccc2c(c1)Cc1ccccc1-2 was tested. Which Potency did it give?
A: 0.026 mmol/kg/day

Same assay, conditions: TargetSites_Mouse_Female: esophagus; oral cavity; stomach; uterus

Q: C=COC(C)=O was tested. Which Potency did it give?
A: 45.5 mmol/kg/day

Same assay, conditions: TargetSites_Mouse_Female: liver

Q: For ClC(Br)Br, which Potency is on record?
A: 0.667 mmol/kg/day

Q: For Nc1ccc(N=Nc2ccccc2)c(N)n1, which Potency is on record?
A: 0.285 mmol/kg/day

Q: For Nc1ccc(Cc2ccc(N)c(Cl)c2)cc1Cl, which Potency is on record?
A: 0.196 mmol/kg/day

Q: CCCN(CCC)S(=O)(=O)c1ccc(C(=O)O)cc1 was tested. Which Potency did it give?
A: 1.89 mmol/kg/day

Q: With c1ccc(NNc2ccccc2)cc1 as the compound, how does the Potency read?
A: 0.141 mmol/kg/day

Same assay, conditions: TargetSites_Mouse_Female: liver; lung

Q: S=[Se] was tested. Which Potency did it give?
A: 0.624 mmol/kg/day

Same assay, conditions: TargetSites_Mouse_Female: liver; lung; stomach

Q: How did the Potency turn out when CCCN(CCC)c1c([N+](=O)[O-])cc(C(F)(F)F)cc1[N+](=O)[O-] was run?
A: 0.984 mmol/kg/day

Same assay, conditions: TargetSites_Mouse_Female: no positive results

Q: C=CCOCC1CO1 (stereo not drawn) was tested. Which Potency did it give?
A: 1.59 mmol/kg/day

Q: COc1nn(CSP(=S)(OC)OC)c(=O)s1 was tested. Which Potency did it give?
A: 0.02 mmol/kg/day

Q: With CCOc1ccccc1C(N)=O as the compound, how does the Potency read?
A: 3.11 mmol/kg/day

Q: With CC/C(C)=N/O as the compound, how does the Potency read?
A: 6.13 mmol/kg/day

Q: Which Potency does the source give for CCNC(=O)Nc1ncc([N+](=O)[O-])s1 here?
A: 3.51 mmol/kg/day

Same assay, conditions: TargetSites_Mouse_Female: stomach

Q: How did the Potency turn out when CC(=O)Nc1nnc(-c2ccc([N+](=O)[O-])o2)s1 was run?
A: 0.0265 mmol/kg/day

Q: Which Potency does the source give for C/C=C/Cl here?
A: 0.066 mmol/kg/day
